Experimental data as given in article PMC6933084 (Journal of medicinal chemistry, 2019).

What was measured:
WDR5 [1] = target: T1, WDR5 (Homo sapiens, UniProt P61964); test: Thermal shift by differential scanning fluorimetry; type: binding; details: DSF; 10 μM, or ten-point dilution for 7k
WDR5-RBBP5 = WDR5-RBBP5 (Homo sapiens, UniProt P61964); type: biochemical; details: HEK293 lysates; lowest concentration tested (6.25 μM)
WDR5-c-MYC = WDR5-c-MYC (Homo sapiens, UniProt P61964); type: biochemical; details: HEK293 lysates; lowest concentration tested (6.25 μM)
WDR5 [2] = target: T1, WDR5; details: for binding affinity for WDR5 (in words): FPA
WDR5 [3] = target: T1, WDR5; test: biochemical

Structure (SMILES)	WDR5 stabilization by thermal shift (in words) (WDR5 [1])	binding affinity for WDR5 (in words) (WDR5 [2])	other results
CNC(=O)c1cc(C2(C#N)CCC2)cc(NS(=O)(=O)c2cc(Br)cc(Cl)c2O)c1O [Compound 7k, 3-((5-Bromo-3-chloro-2-hydroxyphenyl)sulfonamido)-5-(1-cyanocyclobutyl)-2-hydroxy-N-methylbenzamide]	concentration-dependent response	–	–
N#CC1(c2cc(NS(=O)(=O)c3cc(Br)cc(Cl)c3O)c(O)c(C(=O)O)c2)CCC1 [Compound 6r, 3-((5-Bromo-3-chloro-2-hydroxyphenyl)sulfonamido)-5-(1-cyanocyclobutyl)-2-hydroxybenzoic acid]	largest ΔTm	–	disruption of the association WDR5-RBBP5 at the lowest concentration tested (WDR5-RBBP5): marked disruption; disruption of the association WDR5-c-MYC at the lowest concentration tested (WDR5-c-MYC): marked disruption
COc1ccccc1S(=O)(=O)Nc1cc(Cl)ccc1O [Compound 5a, N-(5-Chloro-2-hydroxyphenyl)-2-methoxybenzenesulfonamide]	–	all binding affinity for WDR5 is lost	–
N#CC1(c2cc(NS(=O)(=O)c3cc(Br)cc(Cl)c3O)c(O)c(C(=O)O)c2)CCCCC1 [Compound 6t, 3-((5-Bromo-3-chloro-2-hydroxyphenyl)sulfonamido)-5-(1-cyanocyclohexyl)-2-hydroxybenzoic acid]	largest ΔTm	–	–
COCCNC(=O)c1cc(C2(C#N)CCC2)cc(NS(=O)(=O)c2cc(Br)ccc2O)c1O [Compound 7o, 3-((5-Bromo-2-hydroxyphenyl)sulfonamido)-5-(1-cyanocyclobutyl)-2-hydroxy-N-(2-methoxyethyl)benzamide]	–	–	Kd (WDR5 [3]): 757 ± 17 nM
O=S(=O)(Nc1cc(S(F)(F)(F)(F)F)ccc1O)c1cc(Br)ccc1O [Compound 5k, 5-Bromo-2-hydroxy-N-(2-hydroxy-5-(pentafluorosulfanyl)phenyl)benzenesulfonamide]	–	–	improved binding affinity in comparison to 5l (WDR5 [2]; FPA Kd ratio vs trifluoromethyl cyclopropane 5l): ~ 5 fold
COc1ccc(Br)cc1S(=O)(=O)Nc1cc(Cl)cc(S(C)(=O)=O)c1O [Compound 8, 5-Bromo-N-(5-chloro-2-hydroxy-3-(methylsulfonyl)phenyl)-2-methoxybenzenesulfonamide]	–	sub-micromolar affinity	–
N#CC1(c2cc(NS(=O)(=O)c3cc(Br)ccc3O)c(O)c(C(=O)Nc3nc[nH]n3)c2)CCC1 [Compound 7n, 3-((5-Bromo-2-hydroxyphenyl)sulfonamido)-5-(1-cyanocyclobutyl)-2-hydroxy-N-(1H-1,2,4-triazol-3-yl)benzamide]	–	–	Kd (WDR5 [3]): 46 ± 14 nM
CNC(=O)c1cc(C2(C#N)CCC2)cc(NS(=O)(=O)c2cc(Br)ccc2OC)c1O [Compound 9, 3-((5-Bromo-2-methoxyphenyl)sulfonamido)-5-(1-cyanocyclobutyl)-2-hydroxy-N-methylbenzamide]	–	sub-micromolar affinity	–
O=C(O)c1cc(S(F)(F)(F)(F)F)cc(NS(=O)(=O)c2cc(Br)cc(Cl)c2O)c1O [Compound 6o, 3-((5-Bromo-3-chloro-2-hydroxyphenyl)sulfonamido)-2-hydroxy-5-(pentafluorosulfanyl)benzoic acid]	largest ΔTm	–	–
